Data on six compounds can be found in ChEMBL document CHEMBL2034982, “Synthesis of new 2-galactosylthiazolidine-4-carboxylic acid amides. Antitumor evaluation against melanoma and breast cancer cells” (Eur J Med Chem, 2012).

The subject of assay [1] is A-375. Put plainly: Cytotoxicity against human A375 cells after 48 hrs by MTT assay. In kind it is functional, cell-based. The following applies: for IC50: A-375, 48 h. For orientation: Formazan colour is commonly taken as a measure of viable cells.
Assay [2] has as its system MCF7. Put plainly: Selectivity index, ratio of IC50 for human HFF1 cells to IC50 for human MCF7 cells. Type of assay: functional.
The nature of assay [3]: Cytotoxicity against human HFF1 cells after 48 hrs by MTT assay. Type of assay: cell-based. The following applies: HFF-1, 48 h.
Assay [4] relates to MCF7. Put plainly: Cytotoxicity against human MCF7 cells after 48 hrs by MTT assay. In kind it is functional, cell-based. The following applies: for IC50: MCF7, 48 h.
Assay [5] relates to A-375. Put plainly: Selectivity index, ratio of IC50 for human HFF1 cells to IC50 for human A375 cells. Type of assay: functional.
Assay [6] relates to A-375. Put plainly: Cell cycle arrest in human A375 cells assessed as accumulation at G2 phase at 17 uM after 48 hrs using propidium iodide staining by FACS flow cytometry (reference value: 10.6 +/- 1.2%). Type of assay: functional.
For assay [7], the system named is A-375. Put plainly: Cell cycle arrest in human A375 cells assessed as accumulation at G1 phase at 30 uM after 48 hrs using propidium iodide staining by FACS flow cytometry (reference value: 66.4 +/- 4.1%). Type of assay: functional. Background: A flow cytometer gives signals particle by particle.
For assay [8], the system named is A-375. Put plainly: Cell cycle arrest in human A375 cells assessed as accumulation at S phase at 30 uM after 48 hrs using propidium iodide staining by FACS flow cytometry (reference value: 23.0 +/- 3.3%). Type of assay: functional.
Assay [9] has as its system A-375. Put plainly: Cytotoxicity against human A375 cells assessed as increase in necrotic cells at 17 to 30 uM after 48 hrs by annexin V/propidium iodide staining based FACS flow cytometry. Type of assay: functional, cell-based.
The subject of assay [10] is A-375. Put plainly: Cell cycle arrest in human A375 cells assessed as accumulation at sub G1 phase at 17 uM after 48 hrs using propidium iodide staining by FACS flow cytometry. Type of assay: functional.
Assay [11] deals with A-375. Put plainly: Cell cycle arrest in human A375 cells assessed as accumulation at sub G1 phase at 30 uM after 48 hrs using propidium iodide staining by FACS flow cytometry. In kind it is functional.
The test system of assay [12] is HCC1806. Put plainly: Cytotoxicity against human HCC1806 cells after 48 hrs by MTT assay. The following applies: HCC1806, 48 h. In kind it is functional, cell-based.
Assay [13] relates to A-375. Put plainly: Cell cycle arrest in human A375 cells assessed as accumulation at S phase at 17 uM after 48 hrs using propidium iodide staining by FACS flow cytometry (reference value: 23.0 +/- 3.3%). Type of assay: functional.
For assay [14], the system named is A-375. Put plainly: Cytotoxicity against human A375 cells after 48 hrs by annexin V/propidium iodide staining based FACS flow cytometry. In kind it is functional, cell-based.
For assay [15], the system named is A-375. Put plainly: Cytotoxicity against human A375 cells assessed as increase in apoptotic cells at 17 to 30 uM after 48 hrs by annexin V/propidium iodide staining based FACS flow cytometry. Type of assay: functional, cell-based.
For assay [16], the system named is A-375. Put plainly: Induction of apoptosis in human A375 cells after 48 hrs using propidium iodide staining by FACS flow cytometry. In kind it is functional, cell-based.
In assay [17] the test system is A-375. Put plainly: Cell cycle arrest in human A375 cells assessed as accumulation at G1 phase at 17 uM after 48 hrs using propidium iodide staining by FACS flow cytometry (reference value: 66.4 +/- 4.1%). Type of assay: functional.
Assay [18] has as its system A-375. Put plainly: Induction of apoptosis in human A375 cells assessed as increase in ratio of Bax/Bcl2 at 17 uM after 48 hrs by fluorescence assay relative to control. Type of assay: functional.
In assay [19] the test system is A-375. Put plainly: Induction of apoptosis in human A375 cells assessed as increase in ratio of Bax/Bcl2 at 30 uM after 48 hrs by fluorescence assay relative to control. Type of assay: functional, cell-based.
For assay [20], the system named is A-375. Put plainly: Cytotoxicity against human A375 cells assessed as decrease in viable cells at 17 to 30 uM after 48 hrs by annexin V/propidium iodide staining based FACS flow cytometry. Type of assay: functional, cell-based.
In assay [21] the test system is A-375. Put plainly: Cytotoxicity against human A375 cells assessed as increase in late apoptotic cells at 17 to 30 uM after 48 hrs by annexin V/propidium iodide staining based FACS flow cytometry. In kind it is functional, cell-based.
For assay [22], the system named is A-375. Put plainly: Cell cycle arrest in human A375 cells assessed as accumulation at G2 phase at 30 uM after 48 hrs using propidium iodide staining by FACS flow cytometry (reference value: 10.6 +/- 1.2%). In kind it is functional.

Structures are written as SMILES. The source made the active and inactive calls. No cut-off for these calls is given here.

The term IC50 denotes the point on the concentration scale where inhibition reaches its midpoint. For the compound `CCCCCCCCCCCCNC(=O)C1CSC([C@H](O)[C@@H](OC(C)=O)[C@@H](OC(C)=O)[C@@H](COC(C)=O)OC(C)=O)N1C(C)=O` (mixture of isomers), the Activity result in assay [1] and in [4] was “Dose-dependent effect” throughout. Besides, the half-maximal inhibitory concentration (IC50) is 23.1 µM in assay [1], 2.9 µM in assay [3] and 7.5 µM in assay [4]. The results for the “Ratio IC50” value in assay [2] and in assay [5] were 0.91 and 0.22, respectively.

`CCCCCCCCCCCCCCNC(=O)C1CSC([C@H](O)[C@@H](OC(C)=O)[C@@H](OC(C)=O)[C@@H](COC(C)=O)OC(C)=O)N1C(C)=O` (mixture of isomers): the Activity entry in [1] and in assay [4] was “Dose-dependent effect” throughout. The IC50 in assay [1] came to 19.6 µM; in assay [3], 19.6 µM; in [4] it was 8.4 µM. Also, the “Ratio IC50” value in assay [2] is recorded as 2.2; in assay [5], 1.

For the compound `CCCCCCCCCCCCCCCCNC(=O)C1CSC([C@H](O)[C@@H](OC(C)=O)[C@@H](OC(C)=O)[C@@H](COC(C)=O)OC(C)=O)N1C(C)=O` (mixture of isomers), the Activity in [6] was 16%; in assay [7], 43.6%; in assay [1] it was “Dose-dependent effect”; in [8], 46%; in [10], 5.6%; in [11], 16.6%. The Activity in [13] was 23.6%; in assay [14] it was “Dose-dependent effect”; in [16] it was “Dose-dependent effect”; in assay [17], 60.6%; in assay [4], “Dose-dependent effect”; in assay [22], 10.2%. Further, the IC50 in [1] was 17 µM; in [12] it was 12.6 µM; in assay [3], 29.8 µM; in assay [4], 5.8 µM. Also, the result in assay [9], in assay [15], in [19], in assay [20] and in assay [21] was Active. Besides, the “Ratio IC50” value turned out to be 5.8 in assay [2] and 1.8 in assay [5]. The Ratio in [18] was determined as 2.

`CCCCCCCCCCCCCCCCCCNC(=O)C1CSC([C@H](O)[C@@H](OC(C)=O)[C@@H](OC(C)=O)[C@@H](COC(C)=O)OC(C)=O)N1C(C)=O` (mixture of isomers): the Activity entry in assay [1] and in assay [4] was “Dose-dependent effect” each time. Besides, the 50% inhibitory concentration (IC50) was 20.5 µM in assay [1], 27.2 µM in [3] and 7.7 µM in [4]. Moreover, the “Ratio IC50” value was determined as 3 in assay [2] and 1.1 in assay [5].

In assay [1], `CN(C)/N=N/c1[nH]cnc1C(N)=O` [DACARBAZINE] registered a 50% inhibitory concentration (IC50) above 500 µM.

Regarding `CC(=O)O[C@@]12CO[C@@H]1C[C@H](O)[C@@]1(C)C(=O)[C@H](O)C3=C(C)[C@@H](OC(=O)[C@H](O)[C@@H](NC(=O)OC(C)(C)C)c4ccccc4)C[C@@](O)([C@@H](OC(=O)c4ccccc4)[C@H]21)C3(C)C` [DOCETAXEL], the half-inhibitory concentration (IC50) in assay [12] is 8.4 µM; in assay [4] it was 11.9 µM.
